Measured values reported in US7205311B2, “Therapeutic acridone and acridine compounds” (Cancer Research Technology Limited, priority 2002, dated 2007).
pIC50: −log10 of the molar value.

Experiments:
telomerase = assay: Modified telomeric repeat amplification protocol (TRAP) assay, cell-free; assay type: biochemical; conditions: extracts from A2780 human ovarian carcinoma cells, salts, read-out: telIC50
Description: The ability of compounds to inhibit telomerase in a cell-free assay was assessed with a modified TRAP assay using extracts from exponentially growing A2780 human ovarian carcinoma cells. The TRAP assay was performed in 2 steps: (a) telomerase-mediated extension of the forward primer (TS: 5′-AATCCGTCGAGCAGAGTT, Oswel Ltd., Southampton, UK) contained in a 40 μL reaction mix comprising TRAP buffer (20 mM Tris-HCl (pH 8.3), 68 mM KCl, 1.5 mM MgCl2, 1 mM EGTA, 0.05% v/v Tween 20), 0.05 μg bovine serum albumin, 50 μM of each deoxynucleotide triphosphate, 0.1 μg TS primer, and […] of [α-^32P]dCTP (Amersham pic, UK). Protein (40 ng or 20 ng) was then incubated with the reaction mix+agent (acid addition and quaternary dimethiodide salts) at final concentrations of up to 50 μM for 20 min at 25° C. A lysis buffer (no protein) control, heat-inactivated protein control, and 50% protein (20 ng or 10 ng) control were included in each assay; and (b) while heating at 80° C. in a PCR block of a thermal cycler (Hybaid, UK) for 5 min to inactivate telomerase activity, 0.1 μg of reverse CX primer (3′-[…]-5′) and 2 Units of Taq DNA polymerase (“red hot”, Advanced Biotechnologies) were added. A 3-step PCR was then performed: 94° C. for 30 s, 50° C. for 30 s, and 72° C. for 1 min for 31 cycles. Telomerase-extended PCR products in the presence or absence of compounds were then determined either by electrophoretic separation using 8% w/w acrylamide denaturing gels and analysis by phosphorimaging or autoradiography, or by harvesting on Whatman filters (25 mm glass microfibre) and analysis by liquid scintillation counting.

[1] = Growth inhibition, sulforhodamine B (SRB) assay; assay type: cell-based; conditions: human, salts
Description: (§1) Growth inhibition was measured in three human ovarian carcinoma cell lines (A2780, CH1, and SKOV-3) and one human cervix carcinoma cell line (A431) using the sulforhodamine B (SRB) assay. Briefly, between 3000 and 6000 cells were seeded into the wells of 96-well microtiter plates and allowed to attach overnight. Compounds (acid addition and quaternary dimethiodide salts) were dissolved at 500 μM in water and immediately added to wells in quadruplicate at final concentrations of 0.05, 0.25, 1, 5 and 25 μM. Following an incubation period of 96 hr, remaining cells were fixed with ice-cold 10% w/v trichloroacetic acid (30 min) and stained with 0.4% SRB in 1% v/v acetic acid (15 min). Mean absorbance at 540 nm for each drug concentration was expressed as a percentage of the control untreated well absorbance, and IC50 values (concentration required to inhibit cell growth by 50%) were determined for each agent.

[2] = Growth inhibition, SRB assay, mean over the four cell lines; assay type: cell-based; conditions: human, mean of A2780, CH1, SKOV-3, A431, 96 hr incubation, salts, read-out: Cytotoxicity - IC50, mean value for the four (4) cell lines
Description: as §1

[3] = A431 cervix carcinoma cells, A431, 96 hr incubation, read-out: Cytotoxicity - IC50 A431
[4] = A2780 ovarian carcinoma cells, A2780, 96 hr incubation, read-out: Cytotoxicity - IC50 A2780
[5] = CH1 ovarian carcinoma cells, CH1, 96 hr incubation, read-out: Cytotoxicity - IC50 CH1
[6] = SKOV-3 ovarian carcinoma cells, SKOV-3, 96 hr incubation, read-out: Cytotoxicity - IC50 SKOV-3

CCN(CC)CCNc1ccc2cc3ccc(NCCN(CC)CC)cc3nc2c1 [SB-ACI-05, 3,6-Bis[(N,N-diethylaminoethyl)amino]acridine]
pIC50 (telomerase): 6.27
IC50 at 96 h [1, 3]: 200 nM
IC50 at 96 h [1, 4]: 100 nM
IC50 at 96 h [1, 5]: 200 nM
IC50 at 96 h [1, 6]: 700 nM

c1cc2cc3ccc(NCCCN4CCCC4)cc3nc2cc1NCCCN1CCCC1 [SB-ACI-23, 3,6-Bis[(3-pyrolidino)propylamino]acridine]
pIC50 (telomerase): 6.74
IC50 at 96 h [2]: 1600 nM

CC(C)N(CCNc1ccc2cc3ccc(NCCN(C(C)C)C(C)C)cc3nc2c1)C(C)C [SB-ACI-06, 3,6-Bis[(N,N-diisoproyplaminoethyl)amino]acridine]
pIC50 (telomerase): 6.23
IC50 at 96 h [1, 3]: 1000 nM
IC50 at 96 h [1, 4]: 400 nM
IC50 at 96 h [1, 5]: 600 nM
IC50 at 96 h [1, 6]: 1300 nM

c1cc2cc3ccc(NCCCCN4CCCC4)cc3nc2cc1NCCCCN1CCCC1 [SB-ACI-26, 3,6-Bis[(4-pyrolidino)butylamino]acridine]
pIC50 (telomerase): 6.82
IC50 at 96 h [2]: 2500 nM

CN(C)CCCNc1ccc2cc3ccc(NCCCN(C)C)cc3nc2c1 [SB-ACI-04, 3,6-Bis[(N,N-dimethylaminopropyl)amino]acridine]
pIC50 (telomerase): 6.70
IC50 at 96 h [1, 3]: 700 nM
IC50 at 96 h [1, 4]: 1800 nM
IC50 at 96 h [1, 5]: 2000 nM
IC50 at 96 h [1, 6]: 3900 nM

CN(C)CCNc1ccc2cc3ccc(NCCN(C)C)cc3nc2c1 [SB-ACI-10, 3,6-Bis[(N,N-dimethylaminoethyl)amino]acridine]
pIC50 (telomerase): 6.32
IC50 at 96 h [1, 3]: 200 nM
IC50 at 96 h [1, 4]: 200 nM
IC50 at 96 h [1, 5]: 100 nM
IC50 at 96 h [1, 6]: 200 nM

CCN(CC)CCCNc1ccc2cc3ccc(NCCCN(CC)CC)cc3nc2c1 [SB-ACI-24, 3,6-Bis[(3-diethylamino)propylamino]acridine]
pIC50 (telomerase): 6.65
IC50 at 96 h [2]: 1800 nM

c1cc2cc3ccc(NCCCN4CCCCC4)cc3nc2cc1NCCCN1CCCCC1 [SB-ACI-25, 3,6-Bis[(3-piperidino)propylamino]acridine]
pIC50 (telomerase): 6.66
IC50 at 96 h [2]: 500 nM

CCN(CC)CCCCNc1ccc2cc3ccc(NCCCCN(CC)CC)cc3nc2c1 [SB-ACI-28, 3,6-Bis[(4-diethylamino)butylamino]-acridine]
pIC50 (telomerase): 6.69
IC50 at 96 h [2]: 6300 nM

c1ccc(NCCCNc2ccc3cc4ccc(NCCCNc5ccccc5)cc4nc3c2)cc1 [SB-ACI-27, 3,6-Bis[(3-phenylamino)propylamino]acridine]
pIC50 (telomerase): 4.77
IC50 at 96 h [2]: 1700 nM
